Paper PMC6269498, “Increased activity of MdFRK2, a high-affinity fructokinase, leads to upregulation of sorbitol metabolism and downregulation of sucrose metabolism in apple leaves” (Horticulture Research, 2018)

System: MdFRK1
Assay: coupled spectrophotometric assay (phosphoglucoisomerase / G6P dehydrogenase), […] nm
Format: biochemical, Malus domestica
Details: 50 mM Tris-HCl pH 8.0, 4 mM MgCl2, 2.5 mM ATP; substrate inhibition above 2 mM fructose

OCC1(O)OC[C@@H](O)[C@@H](O)[C@@H]1O (stereo partly shown) [fructose]
Km: 620 µM
